Data on nine molecules can be found in PubChem BioAssay (NCI).

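Where inhibition never reached the appropriate level, the endpoint shown equals the highest concentration tested. Otherwise, values were interpolated linearly from a five-concentration, 48-hour dose response in 96-well plates. GI50 is the concentration that inhibits growth by half. TGI is the concentration that stops growth completely.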

Common to all, as to experiment: NCI tumour cell line growth inhibition, 48 h
Test [1] relates to HL-60(TB) leukemia.
The subject of test [2] is HCC-2998 colon.
Test [3] relates to HOP-92 NSCLC.
Test [4] relates to OVCAR-4 ovarian.
Test [5] concerns OVCAR-5 ovarian.
In test [6] the test system is OVCAR-8 ovarian.
In test [7] the test system is SW-620 colon.
Test [8] deals with U251 CNS.

For the molecule `CN1CCN(c2ccc(NC3=CC(=O)c4ncncc4C3=O)cc2)CC1`, the GI50 in test [1] was 0.249 µM; in test [2], 1.27 µM; in test [3] it was 0.312 µM; in test [4] it was 0.147 µM; in test [5] it was 0.285 µM; in test [6], 0.323 µM. Moreover, the GI50 in test [7] was 0.336 µM; in test [8] it was 0.722 µM. In addition, the TGI in test [1] was 0.635 µM; in test [2] it was 2.82 µM; in test [3] it was 0.993 µM; in test [4], 0.28 µM; in test [5], 0.801 µM; in test [6], 1.57 µM. In addition, the TGI in test [7] turned out to be 1.27 µM; in test [8] it was 1.94 µM.

As for `COc1cc(C(=O)n2nc(N)c3c(C)cc(C)nc32)cc(OC)c1OC`, the GI50 is 4.49 µM in test [1]; over 100 µM in test [2]; over 100 µM in test [3]; over 100 µM in test [4]; over 100 µM in test [5]; over 100 µM in test [6]. In addition, the GI50 in test [7] is 2.48 µM; in test [8] it was over 82.9 µM. The TGI in test [1], in test [2], in test [3], in test [4], in test [5] and in test [6] was over 100 µM each time. Also, the TGI in test [7] and in test [8] was over 100 µM in each case.

For the molecule `CC1=C[C@@H]2c3c(c(O)c(O)c4oc5cc(O)cc(O)c5c(=O)c34)[C@@H](c3cc(O)c(O)c4oc5cc(O)cc(O)c5c(=O)c34)[C@@H]2C(C)(C)C1`, the GI50 was 4.87 µM in test [1]; 3.87 µM in test [2]; 1.85 µM in test [3]; 3.26 µM in test [4]; 7.83 µM in test [5]; 4.31 µM in test [6]. Moreover, the GI50 in test [7] is 3.48 µM; in test [8], 2.34 µM. For the same molecule, the TGI is 27.4 µM in test [1]; 15.2 µM in test [2]; 6.6 µM in test [3]; 14.7 µM in test [4]; 18.2 µM in test [5]; 18.8 µM in test [6]. For the same molecule, the TGI in test [7] came out at 14.2 µM; in test [8], 13.9 µM.

In the case of `O=C1/C(=C/c2ccc([N+](=O)[O-])o2)Oc2ccc(Cl)cc21`, the GI50 in test [1] is 2.08 µM; in test [2] it was 2.18 µM; in test [3] it was 1.45 µM; in test [4] it was 1.9 µM; in test [5], 2.63 µM; in test [6] it was 2.06 µM. Moreover, the values for the GI50 in test [7] and in test [8] were 0.541 µM and 2.02 µM, respectively. Moreover, the TGI in test [1] is 18.3 µM; in test [2], 4.56 µM; in test [3], 3.31 µM; in test [4] it was 3.68 µM; in test [5] it was 7.5 µM; in test [6], over 22.1 µM. For the same molecule, the figures for the TGI in test [7] and in test [8] were 1.99 µM and 4.52 µM, respectively.

Take `Fc1ccc(Nc2nc(Nc3ccc(-c4nc5ccccc5[nH]4)cc3)c3cn[nH]c3n2)cc1`: the GI50 in test [1] is 2.96 µM; in test [2], 1.57 µM; in test [3], 1.5 µM; in test [4], 1.6 µM; in test [5] it was 2.66 µM; in test [6], 2.37 µM. Besides, the GI50 is 2.03 µM in test [7] and 2.1 µM in test [8]. In addition, the TGI in test [1] turned out to be 6.92 µM; in test [2], 3.05 µM; in test [3], 3.19 µM; in test [4], 3.6 µM; in test [5], 7.62 µM; in test [6], 5.37 µM. In addition, the TGI in test [7] came to 4.24 µM; in test [8] it was 4.34 µM.

Take `CSc1ccc(C(=O)/C=C/c2ccc(Cl)cc2Cl)cc1`: the GI50 in test [1] was 18.4 µM; in test [2] it was 17.2 µM; in test [3], 40.2 µM; in test [4], 21.8 µM; in test [5] it was 21.6 µM; in test [6], 20.3 µM. Moreover, the GI50 in test [7] is 22.2 µM; in test [8], 16.9 µM. For the same molecule, the TGI in test [1] is 38.2 µM; in test [2], 35.8 µM; in test [3] it was over 100 µM; in test [4] it was 77.2 µM; in test [5] it was 52.2 µM; in test [6], 43.4 µM. The TGI in test [7] was determined as 56 µM; in test [8] it was 32 µM.

For `Cc1cc(N(CCNc2ccnc3cc(Cl)ccc23)Cc2ccc3c(c2)OCO3)nc(N2CCCC2)n1`, the GI50 is 1.95 µM in test [1]; 1.89 µM in test [2]; 0.695 µM in test [3]; 1.39 µM in test [4]; 1.87 µM in test [5]; 1.91 µM in test [6]. In addition, the results for the GI50 in test [7] and in test [8] were 1.19 µM and 1.36 µM, respectively. Also, the TGI in test [1] was found to be 4.06 µM; in test [2] it was 3.9 µM; in test [3], 2.86 µM; in test [4], 3.24 µM; in test [5], 4.95 µM; in test [6], 5.01 µM. The TGI was found to be 2.94 µM in test [7] and 3.21 µM in test [8].

In the case of `CC12O[C@H](C[C@@H](OC(=O)CCC(=O)O)[C@H]1O)n1c3ccccc3c3c4c(c5c6ccccc6n2c5c31)C(=O)NC4=O`, the GI50 is 9.62 µM in test [1]; 5.64 µM in test [2]; 0.738 µM in test [3]; 5.77 µM in test [4]; 7.87 µM in test [5]; 2.65 µM in test [6]. Besides, the GI50 was 1.43 µM in test [7] and 5.71 µM in test [8]. Further, the TGI in test [1] is 42.4 µM; in test [2] it was 15.1 µM; in test [3] it was 4.77 µM; in test [4], over 50 µM; in test [5], over 50 µM; in test [6], over 50 µM. For the same molecule, the results for the TGI in test [7] and in test [8] were 13.4 µM and 17.1 µM, respectively.

Regarding `CCOC(=O)/C=C1/SC(=Nc2ccc(C#N)cc2)N(Cc2ccco2)C1=O`, the GI50 in test [1] was 2.38 µM; in test [2], 3.67 µM; in test [3] it was 4.51 µM; in test [4] it was 2.74 µM; in test [5] it was 3.36 µM; in test [6], 2.83 µM. For the same molecule, the GI50 was 2.06 µM in test [7] and 2.07 µM in test [8]. Also, the TGI in test [1] came to 5.76 µM; in test [2] it was 15.8 µM; in test [3] it was 22.9 µM; in test [4], 11.2 µM; in test [5], 16.1 µM; in test [6], 7.94 µM. Also, the TGI in test [7] came to 4.97 µM; in test [8], 4.06 µM.
